The values that follow come from patent US20040053884A1, “Preventives or remedies for arthritis” (priority 2001, published 2004).

The test system of assay [1] is mice with type II collagen-induced arthritis. Description: Test Example 4: feed given from day 28 (after induction), type II collagen-induced arthritis score. The note with it: day 0 (before feeding); 0.1% in feed starting at day 28; mean ±SE, N=10; scale 0-16. The assay is classed as in vivo, DBA/1J mice.
The test system is the same in assay [2]. The description is as above. The assay is classed as in vivo, DBA/1J mice. The conditions noted are these: for Scores compared with control (in words): 0.1% added to the feed from day 28, any of the days after day 33; for Score of arthritis: 0.1% in feed starting at day 28, mean ±SE, N=10, scale 0-16. As for the experimental part: (§1) Unless otherwise noted, in the following test examples, DBA/1J mice produced by Charles River, powder feed CE2 produced by CLEA Japan, N-acetylhydroxyproline produced by Kyowa Hakko Kogyo, D-glucosamine sulfate 2NaCl as glucosamine (Miyako Kagaku) and chondroitin sodium sulfate (Maruha Kagaku) as chondtoitin were used.
(§2) Scoring was carried out by applying 0-4 points with respect to one of four paws of mice: 0: no symptom; 1: swelling of one finger or swelling (slight) of the ankle; 2: swelling of 1-3 fingers or swelling of the ankle; 3: swelling of 3-5 fingers plus swelling of the ankle; and 4: swelling of all the fingers plus swelling of the ankle. Each mouse was scored the total of the points of 4 paws, namely, 0-16 points.
As in Test Example 1, 21 days after the first administration of type II collagen, a solution prepared by mixing an equal amount of type II collagen and Freund's complete adjuvant and emulsifying the mixture using a homogenizer in a similar manner as in Test Example 1 was intradermally administered to the mice in an amount of 100 μl per one animal as the second administration of type II collagen. In this manner, arthritis was induced in mice.
Starting at day 28 after the first administration of type II collagen, the mice were given powder feed CE-2 containing no additive as control; powder feed CE-2 containing 0.1% N-acetylhydroxyproline (indicated as AcHYP in Tables 4-1 and 4-2); powder feed CE-2 containing 0.1% glucosamine; powder feed CE-2 containing 0.05% N-acetylhydroxyproline and 0.05% glucosamine; powder feed CE-2 containing 0.05% glucosamine and 0.05% chondroitin; and powder feed CE-2 containing 0.05% N-acetylhydroxyproline, 0.025% glucosamine and 0.025% chondroitin, respectively. At days 28, 33, 36, 39 and 42 after the first administration of type II collagen, the extent of the development of arthritis was scored according to the indices employed in the above Test Example 1.
Ten mice were subjected to the test with respect to each of the conditions.
In the tables, the figures show the scores under different treatment conditions, which are given as mean ±SE (N=10).
(§3) In the tables, “no treatment” means no administration of type II collagen, and “control” means mice were given the feed containing no additive.

Assay [3] has the same test system. Description: Test Example 1: N-acetylhydroxyproline and glucosamine in feed, type II collagen-induced arthritis score. The assay is classed as in vivo, DBA/1J mice. The conditions noted are these: for Scores compared with control (in words): 0.1% added to the feed, compared with no additive (control); for Score of arthritis: 0.1% in feed from day of first collagen administration, mean ±SE, N=20, scale 0-16.
From the text: as §1
It is known that arthritis is induced in DBA/1J mice by administering type II collagen two times.
As the first administration of type II collagen, a solution prepared by mixing an equal amount of type II collagen [Collagen Gijutsu Kenshu Kaisha (MCK)] and Freund's complete adjuvant (Iatron) and emulsifying the mixture using a homogenizer was intradermally administered to 6-week old male DBA/1J mice in an amount of 100 μl per one animal.
Twenty-one days after the first administration of type II collagen, EXAMPLE a solution prepared by mixing an equal amount of type II collagen and Freund's complete adjuvant and emulsifying the mixture using a homogenizer in a similar manner was intradermally administered to the animals in an amount of 100 μl per one animal as the second administration of type II collagen. In this manner, arthritis was induced in mice.
Starting on the day of the first administration of type II collagen, the mice were given powder feed CE-2 containing no additive as control; powder feed CE-2 containing 0.1% N-acetylhydroxyproline (indicated as AcHYP in Tables 1-1 and 1-2); powder feed CE-2 containing 0.1% glucosamine (D-glucosamine sulfate 2NaCl); and powder feed CE-2 containing 0.05% N-acetylhydroxyproline and 0.05% glucosamine, respectively. At days 24, 28, 31, 34, 38 and 42 after the first administration of type II collagen, the extent of the development of arthritis was scored according to the following indices.
as §2
(§4) Twenty mice were subjected to the test with respect to each of the conditions.
(§5) In the tables, the figures show the scores under different treatment conditions, which are given as mean ±SE (N=20).
as §3

The test system is the same in assay [4]. The assay is described as follows: Test Example 2: N-acetylhydroxyproline and chondroitin in feed, type II collagen-induced arthritis score. Also on record: key to Score of arthritis: sum of 4 paws scored 0-4 each, 0-16 points; 0 = no symptom. The assay is classed as in vivo, DBA/1J mice. The note with it: for Score compared with control (in words): 0.1% added to the feed; for Score of arthritis: 0.1% in feed from day of first collagen administration, mean ±SE, N=20, scale 0-16. The procedure: as §1, §2
An experiment similar to that of Test Example 1 was carried out except that chondroitin was used in place of glucosamine.
(§6) That is, 21 days after the first administration of type II collagen, a solution prepared by mixing an equal amount of type II collagen and Freund's complete adjuvant and emulsifying the mixture using a homogenizer in a similar manner as in Test Example 1 was intradermally administered to the mice in an amount of 100 μl per one animal as the second administration of type II collagen. In this manner, arthritis was induced in mice.
Starting on the day of the first administration of type II collagen, the mice were given powder feed CE-2 containing no additive as control; powder feed CE-2 containing 0.1% N-acetylhydroxyproline (indicated as AcHYP in Tables 2-1 and 2-2); powder feed CE-2 containing 0.1% chondroitin; and powder feed CE-2 containing 0.05% N-acetylhydroxyproline and 0.05% chondroitin, respectively. At days 23, 27, 30, 33, 36, 40 and 42 after the first administration of type II collagen, the extent of the development of arthritis was scored according to the indices employed in the above Test Example 1.
as §4, §5, §3

The next assay has as its system arthritis. The note with it: Pharmacological Research, 33, 367-373 (1996); cited from earlier work.
For assay [5], the system named is mice with type II collagen-induced arthritis. Description: Test Example 3: N-acetylhydroxyproline, glucosamine and chondroitin in feed, type II collagen-induced arthritis score. The note with it: for Score of arthritis: 0.05% of each additive in feed from day of first collagen administration, mean ±SE, N=20, scale 0-16. The assay is classed as in vivo, DBA/1J mice. The procedure: as §1, §2
An experiment similar to that of Test Example 1 was carried out except that glucosamine and chondroitin were used in place of glucosamine.
as §6
Starting on the day of the first administration of type II collagen, the mice were given powder feed CE-2 containing no additive as control; powder feed CE-2 containing 0.05% N-acetylhydroxyproline (indicated as AcHYP in Tables 3-1 and 3-2); powder feed CE-2 containing 0.05% N-acetylhydroxyproline and 0.05% chondroitin; and powder feed CE-2 containing 0.05% N-acetylhydroxyproline, 0.05% glucosamine and 0.05% chondroitin, respectively. At days 24, 28, 31, 35, 38 and 42 after the first administration of type II collagen, the extent of the development of arthritis was scored according to the indices employed in the above Test Example 1.
as §4, §5, §3

Assay [6] concerns animal model for arthritis. The note with it: administration after induction of arthritis; J. Drug. Dev., 3, 135-142 (1990); cited from earlier work.

Counter-ions that a name gives are not always drawn.

In the case of `N[C@H]1C(O)O[C@H](CO)[C@@H](O)[C@@H]1O` (stereo partly drawn) [Glucosamine, D-glucosamine sulfate 2NaCl], the Score of arthritis in assay [1] is reported as 0.0 ± 0.0; in assay [2] (day 28 (start of feeding)), 4.3 ± 0.9; in assay [2] (day 33), 9.8 ± 1.2; in assay [2] (day 36), 10.1 ± 1.1; in assay [2] (day 39) it was 10.4 ± 1.0; in assay [2] (day 42), 10.6 ± 1.0. Further, the Score of arthritis in assay [3] (day 0) worked out at 0.0 ± 0.0; in assay [3] (day 24), 0.1 ± 0.1; in assay [3] (day 28), 5.8 ± 0.6; in assay [3] (day 31), 7.7 ± 0.7; in assay [3] (day 34), 9.2 ± 0.7; in assay [3] (day 38), 9.5 ± 0.6. This compound also displayed a Score of arthritis in assay [3] (day 42) of 9.4 ± 0.6. Moreover, the “Scores compared with control (in words)” value is listed as “slight lowering of the scores” in assay [2] and “lowering of the scores” in assay [3].
Regarding chondroitin sodium sulfate, the “Score compared with control (in words)” value is “almost no lowering of the score” in assay [4] (after day 36) and “slight lowering of the score” in assay [4] (until day 33). In addition, the Score of arthritis in assay [4] (day 0) is recorded as 0.0 ± 0.0; in assay [4] (day 23), 0.1 ± 0.1; in assay [4] (day 27), 3.4 ± 0.6; in assay [4] (day 30) it was 7.8 ± 1.0; in assay [4] (day 33), 9.1 ± 0.9; in assay [4] (day 36), 9.7 ± 0.8. Besides, the values for the Score of arthritis in assay [4] (day 40) and in assay [4] (day 42) were 9.9 ± 0.8 and 9.8 ± 0.7, respectively.
Regarding `CC(=O)N1C[C@H](O)C[C@H]1C(=O)O` [AcHYP, N-acetylhydroxyproline], the Score of arthritis is 0.0 ± 0.0 in assay [1]; 4.3 ± 0.9 in assay [2] (day 28 (start of feeding)); 9.8 ± 1.0 in assay [2] (day 33); 10.9 ± 1.1 in assay [2] (day 36); 10.7 ± 1.1 in assay [2] (day 39); 10.8 ± 1.0 in assay [2] (day 42). In addition, the Score of arthritis in assay [5] (day 0) came out at 0.0 ± 0.0; in assay [5] (day 24), 0.2 ± 0.1; in assay [5] (day 28), 5.4 ± 0.6; in assay [5] (day 31) it was 8.5 ± 0.7; in assay [5] (day 35) it was 9.4 ± 0.8; in assay [5] (day 38) it was 9.9 ± 0.8. Further, the Score of arthritis in assay [5] (day 42) is 9.4 ± 0.7; in assay [3] (day 0), 0.0 ± 0.0; in assay [3] (day 24) it was 0.0 ± 0.0; in assay [3] (day 28), 6.5 ± 0.7; in assay [3] (day 31), 9.5 ± 0.8; in assay [3] (day 34) it was 10.7 ± 0.8. In addition, the Score of arthritis in assay [3] (day 38) came to 10.8 ± 0.8; in assay [3] (day 42), 10.6 ± 0.8; in assay [4] (day 0), 0.0 ± 0.0; in assay [4] (day 23) it was 0.1 ± 0.1; in assay [4] (day 27), 3.3 ± 0.7; in assay [4] (day 30) it was 7.0 ± 0.9. For the same compound, the Score of arthritis in assay [4] (day 33) stood at 7.8 ± 0.9; in assay [4] (day 36) it was 7.9 ± 1.0; in assay [4] (day 40), 8.4 ± 0.9; in assay [4] (day 42), 8.8 ± 0.8. The “Effect on chondral injury at joints” value with arthritis was “shows no effect”. The “Effect on systemic injury of ear and tail” value with arthritis was “shows a therapeutic effect”. Moreover, the “Scores compared with control (in words)” value is “slight lowering of the scores” in assay [2]; “almost no lowering of the scores” in assay [5] (0.05% of each additive in the feed, any of the days after day 24); “lowering of the scores” in assay [3]. Further, the “Score compared with control (in words)” value in assay [4] (any of the days after day 27) is “lowering of the score”. Also, the Aggravation of arthritis result in assay [6] was “can prevent aggravation of arthritis”.
